# From ChEMBL document CHEMBL1201862, “PubChem BioAssay data set” (2004)
# Calls of active or inactive are those of the source.
# Experiments:
# [1] = molecular target: Voltage-gated inwardly rectifying potassium channel KCNH2 (Homo sapiens, UniProt Q12809); conditions: Potency;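 further: confirmatory quantitative high-throughput screen measuring inhibition of hERG channel activity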
# CAAX prenyl protease 2 = CAAX prenyl protease 2 (Homo sapiens, UniProt Q9Y256); test: human Rce1 protease inhibitors, dose response, biochemical, yeast membranes, quenched-peptide fluorescence, cherry-pick (AID 588849)
# Trypsin = Trypsin (Sus scrofa, UniProt P00761); test: porcine trypsin inhibitors, dose response, selectivity assay for Rce1 protease inhibitor project, biochemical, quenched peptide fluorescence, cherry-pick (AID 488789)
# [2] = inhibitors of Trypanosoma cruzi host-cell infection, confirmation, beta-gal luminescence, NIH3T3 host cells (AID 2630); format: functional, cell-based; conditions: Mus musculus
# [3] = Luminescence Cell-Based/Microorganism Confirmation at Dose of Inhibitors of Trypanosoma cruzi Infection. [Related pubchem assays: 1885, 1968 ]; format: functional
# [4] = Luminescence Cell-Based Secondary HTS screen to identify cytotoxic compounds of NIH3T3 cells. [Related pubchem assays: 1885, 1968 ]; format: functional
# cells = format: functional, cell-based; conditions: HEK-CNG
# [5] = cytotoxicity in HEK-293T NF-kB-Luc cells, dose response, cytotoxicity control for B/T-cell NF-kB inhibitor project, cell-based, uHTS hits (AID 489019); format: functional;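 further: IC50 reflects cytotoxicity as loss of cell viability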
# Galanin receptor type 3 = Galanin receptor type 3 (Homo sapiens, UniProt O60755); test: Fluorescence-based cell-based primary high throughput dose response assay to identify antagonists of the Galanin Receptor 3 (GalR3).; format: functional
# [6] = molecular target: T1, COUP transcription factor 2 (Homo sapiens, UniProt P24468); test: Luminescence-based cell-based high throughput dose response assay to identify inhibitors of COUP-TFII (NR2F2).; format: functional;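 further: HEK293 cells transiently cotransfected with COUP-TFII expression vector and reporter; luciferase reporter luminescence driven by COUP-TFII from the pX2-168 reporter plasmid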
# T1 sequence (P24468 whole entry): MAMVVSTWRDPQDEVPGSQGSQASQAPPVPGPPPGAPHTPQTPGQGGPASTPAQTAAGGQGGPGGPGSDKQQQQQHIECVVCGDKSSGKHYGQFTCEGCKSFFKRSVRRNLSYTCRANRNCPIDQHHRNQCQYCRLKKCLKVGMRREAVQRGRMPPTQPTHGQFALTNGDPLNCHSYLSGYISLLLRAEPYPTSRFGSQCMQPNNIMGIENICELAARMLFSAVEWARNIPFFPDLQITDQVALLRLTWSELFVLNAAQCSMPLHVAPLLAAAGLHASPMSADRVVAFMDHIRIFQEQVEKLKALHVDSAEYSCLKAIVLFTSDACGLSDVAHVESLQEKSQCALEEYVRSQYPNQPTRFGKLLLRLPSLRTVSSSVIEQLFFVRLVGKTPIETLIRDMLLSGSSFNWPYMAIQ
# Jurkat = test: antigen receptor-induced NF-kB inhibitors, dose response, Jurkat, luciferase reporter, luminescence, B- and T-cell (AID 489004); format: functional, cell-based; conditions: Homo sapiens;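 further: NF-kB luciferase reporter Jurkat cells stimulated with PMA plus ionomycin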
# Galanin receptor type 2 = Galanin receptor type 2 (Homo sapiens, UniProt O43603); test: Dose Response cell-based high-throughput screening assay to identify antagonists of galanin receptor 2 (GALR2). [Related pubchem assays: 828, 866 ]; format: functional
# Beta-arrestin-1 = Beta-arrestin-1 (Homo sapiens, UniProt P49407); test: inhibitors of arrestin peptide binding to AP2, dose response, biochemical, cherry pick 1, beta2-adaptin appendage, flow cytometry (AID 588783); format: functional
# Beta-arrestin-1, sequence (P49407 whole entry): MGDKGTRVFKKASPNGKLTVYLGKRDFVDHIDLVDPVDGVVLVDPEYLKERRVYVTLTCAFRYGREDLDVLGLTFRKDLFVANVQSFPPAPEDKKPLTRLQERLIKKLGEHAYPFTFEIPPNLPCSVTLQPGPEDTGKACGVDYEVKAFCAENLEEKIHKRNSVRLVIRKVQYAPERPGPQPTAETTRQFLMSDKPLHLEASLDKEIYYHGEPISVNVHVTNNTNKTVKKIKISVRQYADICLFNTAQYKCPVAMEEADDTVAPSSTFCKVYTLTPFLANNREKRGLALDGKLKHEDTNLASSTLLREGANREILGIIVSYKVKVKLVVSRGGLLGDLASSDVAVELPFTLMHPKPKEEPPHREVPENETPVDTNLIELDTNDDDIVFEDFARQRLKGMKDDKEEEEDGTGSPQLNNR
# Trypsin, sequence (P00761 whole entry): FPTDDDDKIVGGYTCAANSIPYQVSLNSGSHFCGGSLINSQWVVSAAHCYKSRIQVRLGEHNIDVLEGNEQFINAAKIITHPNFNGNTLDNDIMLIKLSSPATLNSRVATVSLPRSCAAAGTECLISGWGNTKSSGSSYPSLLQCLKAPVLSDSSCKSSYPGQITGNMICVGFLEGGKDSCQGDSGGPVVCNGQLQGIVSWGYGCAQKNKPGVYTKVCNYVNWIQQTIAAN
# Galanin receptor type 3, sequence (O60755 whole entry): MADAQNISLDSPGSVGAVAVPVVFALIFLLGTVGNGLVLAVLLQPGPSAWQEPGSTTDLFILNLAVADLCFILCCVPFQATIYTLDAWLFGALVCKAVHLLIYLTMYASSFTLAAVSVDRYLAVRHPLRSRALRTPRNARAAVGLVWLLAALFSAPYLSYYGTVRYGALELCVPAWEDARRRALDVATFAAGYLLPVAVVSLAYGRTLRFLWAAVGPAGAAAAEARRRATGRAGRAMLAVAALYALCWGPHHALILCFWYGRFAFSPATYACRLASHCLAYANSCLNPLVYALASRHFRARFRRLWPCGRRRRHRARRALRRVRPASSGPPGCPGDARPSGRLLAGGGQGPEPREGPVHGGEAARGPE
# CAAX prenyl protease 2, sequence (Q9Y256 whole entry): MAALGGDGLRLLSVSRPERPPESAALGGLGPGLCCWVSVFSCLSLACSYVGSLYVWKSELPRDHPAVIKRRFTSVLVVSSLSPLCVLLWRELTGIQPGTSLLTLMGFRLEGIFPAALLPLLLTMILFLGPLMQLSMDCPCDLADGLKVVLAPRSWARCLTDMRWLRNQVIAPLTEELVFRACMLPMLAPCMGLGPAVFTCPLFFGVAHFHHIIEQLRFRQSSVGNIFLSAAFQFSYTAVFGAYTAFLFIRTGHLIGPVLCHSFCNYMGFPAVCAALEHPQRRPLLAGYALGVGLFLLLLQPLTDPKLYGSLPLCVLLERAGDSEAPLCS
# Voltage-gated inwardly rectifying potassium channel KCNH2, sequence (Q12809 whole entry): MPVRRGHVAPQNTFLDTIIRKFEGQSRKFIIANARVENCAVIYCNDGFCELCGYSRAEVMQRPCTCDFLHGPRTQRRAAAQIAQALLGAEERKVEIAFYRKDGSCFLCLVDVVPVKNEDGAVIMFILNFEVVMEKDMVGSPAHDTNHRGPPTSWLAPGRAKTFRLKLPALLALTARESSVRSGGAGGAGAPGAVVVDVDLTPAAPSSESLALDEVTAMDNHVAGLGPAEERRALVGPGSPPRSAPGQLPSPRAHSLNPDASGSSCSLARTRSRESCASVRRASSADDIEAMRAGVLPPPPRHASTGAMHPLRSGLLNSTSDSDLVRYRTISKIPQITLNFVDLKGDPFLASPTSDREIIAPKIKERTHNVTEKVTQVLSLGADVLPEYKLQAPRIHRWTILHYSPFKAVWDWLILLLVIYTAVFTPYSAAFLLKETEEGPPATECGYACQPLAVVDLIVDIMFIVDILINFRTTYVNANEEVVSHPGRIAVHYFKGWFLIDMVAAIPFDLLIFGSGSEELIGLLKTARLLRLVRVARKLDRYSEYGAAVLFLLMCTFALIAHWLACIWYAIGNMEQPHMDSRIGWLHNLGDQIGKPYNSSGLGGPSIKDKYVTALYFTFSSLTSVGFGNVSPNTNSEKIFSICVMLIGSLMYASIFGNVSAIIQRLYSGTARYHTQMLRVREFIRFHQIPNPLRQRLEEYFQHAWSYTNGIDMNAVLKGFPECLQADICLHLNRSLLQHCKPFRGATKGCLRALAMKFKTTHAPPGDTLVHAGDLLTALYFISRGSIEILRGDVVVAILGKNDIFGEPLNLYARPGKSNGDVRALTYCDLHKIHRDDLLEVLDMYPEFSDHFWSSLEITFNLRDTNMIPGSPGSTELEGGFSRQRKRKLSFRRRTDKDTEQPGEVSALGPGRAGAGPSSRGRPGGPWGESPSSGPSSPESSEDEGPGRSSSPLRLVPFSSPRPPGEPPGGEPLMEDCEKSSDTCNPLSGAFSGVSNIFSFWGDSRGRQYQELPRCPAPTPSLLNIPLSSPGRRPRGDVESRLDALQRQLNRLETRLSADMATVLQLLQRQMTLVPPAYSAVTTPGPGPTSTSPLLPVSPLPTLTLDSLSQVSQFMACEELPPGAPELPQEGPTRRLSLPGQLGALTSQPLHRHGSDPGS
# Galanin receptor type 2, sequence (O43603 whole entry): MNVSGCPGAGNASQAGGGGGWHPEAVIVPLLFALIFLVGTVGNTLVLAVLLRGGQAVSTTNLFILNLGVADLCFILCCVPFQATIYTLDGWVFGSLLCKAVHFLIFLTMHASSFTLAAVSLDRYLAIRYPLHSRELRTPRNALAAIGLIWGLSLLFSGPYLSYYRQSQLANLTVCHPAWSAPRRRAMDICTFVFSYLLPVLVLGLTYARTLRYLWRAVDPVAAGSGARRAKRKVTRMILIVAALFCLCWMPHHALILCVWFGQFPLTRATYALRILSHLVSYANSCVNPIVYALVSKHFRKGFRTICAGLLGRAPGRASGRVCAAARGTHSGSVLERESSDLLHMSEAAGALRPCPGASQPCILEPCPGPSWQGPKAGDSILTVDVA
smiles,measurement,setting,value
CCCN(CCC)C1Cc2cc(OC)c(OC)cc2C1,AC50,[1],14.1 µM (inconclusive)
COc1ccc(/C=C\c2cc(OC)c(OC)cc2CC[N+](C)(C)C)cc1OC,AC50,CAAX prenyl protease 2,13.2 µM (active)
same,AC50,Trypsin,11.6 µM (active)
CCc1ccc2nc(N(CCN(C)C)C(=O)c3ccc4ncsc4c3)sc2c1,EC50,[2],0.176 µM (active)
same,EC50,[3],0.176 µM (active)
same,EC50,[4],> 195 µM (inconclusive)
O=C(CSc1nnnn1C1CC2CCC1C2)Nc1ccnc2ccccc12 (stereo not drawn),EC50,cells,> 29.9 µM (inactive)
same,IC50,[5],45.1 µM (inactive)
same,IC50,Galanin receptor type 3,0.0869 µM (active)
same,IC50,[6],0.568 µM (active)
same,IC50,Jurkat,61.4 µM (inactive)
same,IC50,Galanin receptor type 2,> 42 µM (not active)
CCN1/C(=C/c2ccc3cc(C)ccc3[n+]2C)Sc2ccc3sccc3c21,IC50,Beta-arrestin-1,3.12 µM (active)
